From US20200024246A1, “POGOSTONE DERIVATIVES AND METHODS OF USING THE SAME” (Hamyard Associates LLC, priority 2018, published 2020)
≈ marks a conversion by molar mass, not a printed value. Where “and” joins values, the source holds several entries; their conditions need not be identical. Identical values can stand only once. Entries after “also recorded” stand apart in the source; their conditions may differ. Like-named read-outs stand apart in the source and are kept apart here.

Experiments:
adult house flies [1] = assay: Topical application of pogostone derivatives with PBO or plant essential oil on house flies; assay type: in vivo, house fly; settings: house flies, topical, derivative alone or in combination with PBO
Procedure: Combinations of select pogostone derivatives with select concentrations of PBO or plant essential oils was performed. […] Synergists were applied as a subsequent application directly after the application of pogostone derivatives. Concentrations of synergists (plant oils or PBO) were chosen that produced no mortality at 24 hours when applied alone.
To assess the ability of PBO to increase the toxicity of a wide variety of pogostone derivatives, PBO and the pogostone derivatives were applied in combination to the pronotum of house flies.
Finally, the potential of plant essential oils to synergize the effect of Formula 30 was assessed.

house flies [2] = assay: Topical application on house flies; settings: House Fly Toxicity; topical
adult female mosquitoes = assay: whole plant or invertebrate; settings: for 1-hour Knockdown EC50 (μg/g mosquito) / LD50: topical; for LD50: 24 h, read-out: 24-hour Mortality LD50 (μg/g mosquito)
Procedure: The first group of DHAA-based derivatives that were tested included Formula A2, Formula B3, Formula C3, and Formula D3. A solution of 0.5% or 1.5% of each of these compounds was applied to the mosquitoes, as described above. […] Acetone was used as a control.

adult, female mosquitoes = assay: Topical application on adult female mosquitoes (24-h mortality, 1-h knockdown); assay type: in vivo, mosquito; settings: for ED50: read-out: KD50 (ug/g mosquito); for LD50: read-out: LD50 (ug/g mosquito); for insecticidal properties compared with natural pogostone, natural pyrethrins or terpenoids: words, refers to Table 1
[3] = tested on: Pyrethroid-resistant strain of Aedes aegypti (Puerto Rican strain); assay: Toxicity to insecticide-resistant mosquitoes (FIG. 1); settings: dose response curves FIG. 1
[4] = tested on: 3-4 instar Aedes aegypti larvae; assay: Mosquito larvicide bioassay; assay type: in vivo; settings: for LC50: Aedes aegypti
Procedure: Mosquito larvicide bioassays were performed by introducing various concentrations of test compounds (pyrone derivatives and rotenone) into acetone at various concentrations. 200 uL of these solutions were added to individual cups containing 10, 3-4 instar Aedes aegypti larvae and 25 mL of DI water. 2 mg of Tetramin™ was provided to each cup as a food source. […] Ataxia was used as the indicator of larval mortality. At least 5 concentrations were used which caused between 10 and 90% mortality. LC50 values were calculated using a PROC PROBIT model in SAS 9.4.

soybean aphids = assay: Soybean aphid leaf dip assay for DHAA-based derivatives; assay type: in vivo; settings: 24 hours
Procedure: Isolated soybean leaves were dipped into a pyrone solution containing either 0.5% or 1.5% of select DHAA-based derivatives. The leaves were allowed to dry for 30 minutes, and then place in a dish. Ten soybean aphids were placed on each leaf. Mortality was assessed at 24 hours.

adult flies = assay: Contact toxicity on treated filter paper; assay type: in vivo; settings: filter paper treated with 1 mL in acetone; 24 hours
Procedure: Filter papers were treated with 1 mL of the disclosed compounds in acetone at varying concentrations, and the filter papers were placed in a dish. Ten adult flies were added to each dish and a sugar pad was added to each dish to ensure that any mortality could be attributed to the compound instead of starvation. Mortality was assessed at 24 hours.

house flies [5] = assay: Knockdown and mortality of DHAA-based derivatives on house flies; assay type: in vivo, house fly
Description: Accordingly, further derivatives with structures similar to Formula C3 were synthesized and tested for knockdown potential and mortality in house flies and mosquitoes using an experimental design similar to the one described above. These compounds include Formula C5, Formula C6, Formula C7, Formula C8, Formula C9, and Formula C10.

adult house flies [6] = assay: House fly feeding assay (choice assay, FIG. 5); assay type: in vivo; settings: 15% w/w in fly food, total mortality at 5 days
Description: Formulas 13, 17, 24, 26, 10, 27, and 29 and control (acetone and boric acid) were incorporated into 2 g of house fly food (1:1 dry milk and sucrose) at rate of 15%. Specifically, approximately 20-30 adult house flies ( ) were introduced into aquaria with a French square filled with de-ionized water. Cotton dental wicks were used to draw water up and present it to flies at the top of the French square. Compounds were introduced at a concentration of (15% w/w food) into 1:1 mixtures of evaporated milk powder and sucrose. MUSCALURE™, a potent house fly attractant/pheromone used in various house fly bait products, was also added to this mixture of bait and food at a concentration of 0.5% w/w food. Two grams of food mixed with compound was provided to house flies in each assay. Another 2 g of just fly food (no compound) was provided at the other end of the assay chamber to serve as untreated source of food. This was done to assess the ability of flies to feed on the treated food source (palatability). If acetone was used as the carrier throughout the experiment, the food was carefully stirred repeatedly to ensure evaporation so that no more acetone was present in the food. Total mortality was assessed at 5 days after introducing house flies into individual mason jars with food treated with different compounds.

[7] = tested on: Dandelion (Taraxacum officinale); assay: Soil drench herbicidal test, dandelion; assay type: in vivo; settings: Dandelion; 2 weeks after soil drench - 40 mL of 0.5% solution; Rep 1 and 2
Procedure: Dandelion (Taraxacum officinale) seeds were obtained from the Department of Agronomy at Iowa State University. Individual seeds were sown for each pot (6″ wide×4.5″ deep) with approximately 800 mL of soil for each plan. Only plants that germinated were used for the study. Plants were treated 1-2 weeks post emergence. Plants were watered every 2-3 days as needed. Giant foxtail (Setaria faberi) seeds were obtained from the Department of Agronomy at Iowa State University. Three seeds were sown for each pot (6″ wide×4.5″ deep) with approximately 800 mL of soil for each plan. Only plants that germinated were used for the study. Plants were treated 1-2 weeks post emergence. Plants were watered every 2-3 days as needed.
Formulations of the various active ingredients were created using the disclosed pogostone derivatives and Triton-X 100 to aid in the solvation of the active ingredient. Formulations consisted of 0.5% active ingredient by weight. […] 40 mL of formulation ([…] active ingredient) was applied to each pot containing approximately 3-5 plants per pot at 2-3 weeks after emergence. Observations were performed 3 days and 2 weeks after soil drench to determine the effects of the treatments on the various types and stages of plants. […]

[8] = tested on: Western corn rootworm larvae; assay: Seed treatment testing: rootworm survival (FIG. 2A); assay type: in vivo; settings: seeds coated with compound; 1 week after introduction of larvae
Procedure: (§1) Corn seeds used were a non-transgenic type strain of corn to prevent confounding results. Germination typically occurred between 2-4 days after moistening.
(§2) Seed coating was accomplished by placing 20 g of corn seeds or soybeans into a container with approximately 1 mL of a 1:5 Elmer's glue:water solution with a small amount of Triton-X100™ (present 100 μL/5 mL). For solid compounds, 0.25 g of compound was subsequently introduced into the container. This mixture of seeds, Elmer's Glue/water/Triton-X 100™ solution, and active compound was mixed thoroughly until seeds were coated with the active ingredient.
(§3) For each treatment, 0.25 g of liquid compound was dissolved in 5 mL of hexane. 0.25 g of Hi-Sil 233 silica gel was introduced into this mixture of hexane and active ingredient. The solvent was blown-off using a rotary evaporator, allowing for the compound to adsorb to the silica gel. This 0.5 g of silica gel:active ingredient was then used as the solid material used for coating the seeds. The seeds were then coated with the same method used for solid compound.
(§4) Three corn seeds coated in pogostone derivative treatments were germinated in small, 2-oz. […] Germination of seedlings was also recorded at the end of the assay by counting the total number of seeds that produced roots out of the 3 seeds in each container/replicate and recorded as total percentage germination. […]

corn seeds = assay: Seed treatment testing: survival/germination of treated corn seeds (FIG. 2B); assay type: in vivo; settings: seeds coated with compound; 1 week after introduction of larvae
Procedure: as §1, §2, §3, §4

[9] = Mosquito Knockdown Properties (1 hour), topical application
[10] = Mosquito Toxicity (24 hours), topical application to pronotum

## CCCC(=O)c1c(O)c2ccccc2oc1=O [Formula 14]
Adult house flies [1]
  LD50 (μg/g): >6,000 μg/g
House flies [2]
  LD50 (ug/g fly): >6,000 ug/g fly
Adult female mosquitoes
  1-hour Knockdown EC50 (μg/g mosquito): >1500 μg/g mosquito
  LD50: 139 mg/kg
adult, female mosquitoes; topical, 1 h
  ED50: > 1500 mg/kg
adult, female mosquitoes; topical, 24 h
  LD50: 139 mg/kg
adult, female mosquitoes
  insecticidal properties compared with natural pogostone, natural pyrethrins or terpenoids: possessed better insecticidal properties than natural pogostone
[3]
  insecticidal capacity compared with natural pyrethrins: outperformed natural pyrethrins
[4]; larval mortality at 24 hours, in 25 mL DI water, read-out: LC50
  LC50: 0.9 µg/mL
[4]; words
  larvicidal properties compared with natural pogostone or rotenone: possessed better larvicidal properties than natural pogostone; also recorded: possessed better larvicidal properties than rotenone; also recorded: performed as well as the rotenone

## Cc1cc(O)c(C(=O)CC(O)C(C)C)c(=O)o1 (stereo not shown) [Formula C10]
Adult female mosquitoes; 0.5% concentration
  Mosquito Knockdown at 0.5% concentration: 100%
  Mosquito Mortality at 0.5% concentration: 100%
Adult female mosquitoes; 1.5% concentration
  Mosquito Knockdown at 1.5% concentration: 100%
  Mosquito Mortality at 1.5% concentration: 100%
Adult female mosquitoes
  1-hour Knockdown EC50 (μg/g mosquito): 49 μg/g mosquito
  LD50: 29 mg/kg
Adult female mosquitoes; words
  ranking in knockdown and mortality screenings: performed the best in the initial knockdown and mortality screenings
Soybean aphids; leaf dipped in 0.5% solution
  soybean aphids dead: Roughly 67%
Soybean aphids; leaf dipped in 1.5% solution
  soybean aphids dead: Roughly 90%
Adult flies
  percent mortality, 0.10% Concentration: 15%
  percent mortality, 0.25% Concentration: 0%
  percent mortality, 0.50% Concentration: 45%
House flies [5]; 0.5% concentration
  House Fly Knockdown at 0.5% concentration: 52.5%
  House Fly Mortality at 0.5% concentration: 23%
House flies [5]; 1.5% concentration
  House Fly Knockdown at 1.5% concentration: 64%
  House Fly Mortality at 1.5% concentration: 24%

## Cc1cc(O)c(C(=O)/C=C/C(C)C)c(=O)o1 [Formula 10]
Adult house flies [6]
  mortality compared with boric acid: performed better than boric acid
adult, female mosquitoes; [9]
  ED50: > 1500 mg/kg
adult, female mosquitoes; [10]
  LD50: > 1500 mg/kg

## O=C(CCc1ccccc1)c1c(O)c2ccccc2oc1=O [Formula 24]
Adult house flies [6]
  mortality compared with boric acid: performed similarly to boric acid
adult, female mosquitoes; topical, 1 h
  ED50: > 1500 mg/kg
adult, female mosquitoes; topical, 24 h
  LD50: > 1500 mg/kg

## O=C(O)COc1ccc(Cl)cc1Cl [2,4-D, 2,4-dichlorophenoxyacetic acid]
[7]
  % mortality: 100% and 80%

## Cc1cc(O)c(C(=O)CCC(C)C)c(=O)o1 [Pogostone, 3-(4-Methylpentanoyl)-4-hydroxy-2H]
[8]
  western corn rootworm mortality: significant western corn rootworm mortality
Corn seeds
  phytotoxicity to treated corn seeds: Significant phytotoxicity
Adult female mosquitoes
  1-hour Knockdown EC50 (μg/g mosquito): 95.2 μg/g mosquito
  LD50: 262 mg/kg
Adult flies
  percent mortality, 0.10% Concentration: 95%
  percent mortality, 0.25% Concentration: 100%
  percent mortality, 0.50% Concentration: 100%
adult, female mosquitoes; [9]
  ED50: 18.4 mg/kg
adult, female mosquitoes; [10]
  LD50: 388 mg/kg
[4]; 24 h
  LC50: 18.3 µg/mL (≈ 81.6 µM)

## CCCCCCCCCCCC(=O)c1c(O)c2ccccc2oc1=O [Formula 26]
Adult house flies [6]
  mortality compared with boric acid: performed similarly to boric acid
adult, female mosquitoes; topical, 1 h
  ED50: > 1500 mg/kg
adult, female mosquitoes; topical, 24 h
  LD50: > 1500 mg/kg

## O=C(c1c(O)c2ccccc2oc1=O)C1CC1 [Formula 29]
Adult house flies [6]
  mortality compared with boric acid: performed better than boric acid
Adult house flies [1]
  LD50: 1761 µg/g
House flies [2]
  LD50 (ug/g fly): 1761 ug/g fly
adult, female mosquitoes; [9]
  ED50: 613 mg/kg
adult, female mosquitoes; [10]
  LD50: 47.7 mg/kg
adult, female mosquitoes
  insecticidal properties compared with natural pogostone, natural pyrethrins or terpenoids: possessed better insecticidal properties than natural pogostone
